Entries after “also recorded” stand apart in the source; their conditions may differ. Like-named read-outs stand apart in the source and are kept apart here.
Columns and labels:
[1] = molecular target: T1, Human monoamine oxidase A (Homo sapiens, UniProt P21397); assay: Steady-state MAO-A activity, fluorimetric kynuramine assay; type: biochemical; conditions: 40 μM kynuramine, 20 min, pH 7.1; mean ± SD (n); from semilogarithmic plot
T1 construct: purchased Sigma-Aldrich (Milan, Italy)
T1 sequence (P21397 1-527): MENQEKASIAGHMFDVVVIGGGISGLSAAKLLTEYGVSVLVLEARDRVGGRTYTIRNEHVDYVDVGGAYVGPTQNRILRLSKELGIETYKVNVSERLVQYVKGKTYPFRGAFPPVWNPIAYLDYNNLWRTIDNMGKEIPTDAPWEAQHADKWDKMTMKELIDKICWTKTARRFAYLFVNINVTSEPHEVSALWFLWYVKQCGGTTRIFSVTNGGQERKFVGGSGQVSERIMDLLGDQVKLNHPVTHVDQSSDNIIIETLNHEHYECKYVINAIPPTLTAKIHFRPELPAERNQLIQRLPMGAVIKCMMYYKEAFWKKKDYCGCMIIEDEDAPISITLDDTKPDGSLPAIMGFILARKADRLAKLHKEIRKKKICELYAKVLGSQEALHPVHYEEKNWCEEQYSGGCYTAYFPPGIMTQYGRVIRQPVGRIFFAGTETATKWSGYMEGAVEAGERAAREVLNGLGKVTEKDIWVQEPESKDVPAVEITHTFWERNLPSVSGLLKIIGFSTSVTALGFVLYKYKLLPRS
Experimental: Monoamine oxidase activity was assayed by the fluorimetric method, as previously reported. This method, based on the monoamine oxidase oxidation of its non-selective substrate kynuramine, led to the production of […], which becomes fluorescent in alkaline conditions. In steady-state measurements of MAO activity, the reaction mixture (250 µL), prepared in a 50 mM potassium phosphate buffer, pH 7.1 (buffer A), contained 40 μM kynuramine in the absence or presence of the indicated concentration of the inhibitor. The DMSO concentration carried over by the inhibitor was 0.5% (v/v), and an identical concentration of DMSO was used in the absence of the inhibitor. […] The reaction was stopped by adding 150 μL of 2 M NaOH and, after 10 min of incubation at room temperature, 240 μL of water. After centrifugation (10 min at 15,000 rpm), the fluorescence signal was measured on 500 μL of supernatant using a Cary Eclipse Spectrofluorimeter (Agilent Technologies, Milan, Italy) at room temperature (20–25 °C).

[2] = molecular target: T2, Human monoamine oxidase B (Homo sapiens, UniProt P27338); assay: Steady-state MAO-B activity, fluorimetric kynuramine assay; type: biochemical; conditions: 40 μM kynuramine, 20 min, pH 7.1; mean ± SD (n); from semilogarithmic plot
T2 construct: purchased Sigma-Aldrich (Milan, Italy)
T2 sequence (P27338 1-520): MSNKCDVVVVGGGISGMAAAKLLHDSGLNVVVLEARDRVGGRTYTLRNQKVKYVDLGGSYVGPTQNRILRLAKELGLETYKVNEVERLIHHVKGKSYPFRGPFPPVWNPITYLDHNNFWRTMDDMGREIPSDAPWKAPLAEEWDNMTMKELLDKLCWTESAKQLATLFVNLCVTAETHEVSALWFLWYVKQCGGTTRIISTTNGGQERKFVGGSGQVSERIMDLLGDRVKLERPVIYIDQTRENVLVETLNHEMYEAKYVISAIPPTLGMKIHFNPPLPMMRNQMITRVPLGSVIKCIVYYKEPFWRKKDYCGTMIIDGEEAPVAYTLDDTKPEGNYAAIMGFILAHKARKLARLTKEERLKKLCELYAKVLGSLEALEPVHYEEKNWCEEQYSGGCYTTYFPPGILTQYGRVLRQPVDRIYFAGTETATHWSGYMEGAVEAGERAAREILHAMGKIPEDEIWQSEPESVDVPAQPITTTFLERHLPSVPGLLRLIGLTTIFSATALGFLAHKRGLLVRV
Experimental: (§1) Monoamine oxidase activity was assayed by the fluorimetric method, as previously reported. This method, based on the monoamine oxidase oxidation of its non-selective substrate kynuramine, led to the production of […], which becomes fluorescent in alkaline conditions. In steady-state measurements of MAO activity, the reaction mixture (250 µL), prepared in a 50 mM potassium phosphate buffer, pH 7.1 (buffer A), contained 40 μM kynuramine in the absence or presence of the indicated concentration of the inhibitor. The DMSO concentration carried over by the inhibitor was 0.5% (v/v), and an identical concentration of DMSO was used in the absence of the inhibitor. The reaction started with the addition of 3.75 μg monoamine oxidase A or B and lasted 20 min. The reaction was stopped by adding 150 μL of 2 M NaOH and, after 10 min of incubation at room temperature, 240 μL of water. After centrifugation (10 min at 15,000 rpm), the fluorescence signal was measured on 500 μL of supernatant using a Cary Eclipse Spectrofluorimeter (Agilent Technologies, Milan, Italy) at room temperature (20–25 °C). Excitation and emission wavelengths of 315 and 380 nm, respectively, were employed; slits were set to 10 nm for both the excitation and emission beams.

[3] = molecular target: T3, bovine milk xanthine oxidase (Bos taurus, UniProt P80457); assay: Steady-state xanthine oxidase activity, spectrophotometric assay; type: biochemical; conditions: for IC50: read-out: IC50 XO inhibition; for Inhibition of XO activity (in words): steady-state, concentration series
T3 construct: bovine milk xanthine oxidase; purchased Sigma-Aldrich (Milan, Italy); host or cells: bovine milk
T3 sequence (P80457 whole entry): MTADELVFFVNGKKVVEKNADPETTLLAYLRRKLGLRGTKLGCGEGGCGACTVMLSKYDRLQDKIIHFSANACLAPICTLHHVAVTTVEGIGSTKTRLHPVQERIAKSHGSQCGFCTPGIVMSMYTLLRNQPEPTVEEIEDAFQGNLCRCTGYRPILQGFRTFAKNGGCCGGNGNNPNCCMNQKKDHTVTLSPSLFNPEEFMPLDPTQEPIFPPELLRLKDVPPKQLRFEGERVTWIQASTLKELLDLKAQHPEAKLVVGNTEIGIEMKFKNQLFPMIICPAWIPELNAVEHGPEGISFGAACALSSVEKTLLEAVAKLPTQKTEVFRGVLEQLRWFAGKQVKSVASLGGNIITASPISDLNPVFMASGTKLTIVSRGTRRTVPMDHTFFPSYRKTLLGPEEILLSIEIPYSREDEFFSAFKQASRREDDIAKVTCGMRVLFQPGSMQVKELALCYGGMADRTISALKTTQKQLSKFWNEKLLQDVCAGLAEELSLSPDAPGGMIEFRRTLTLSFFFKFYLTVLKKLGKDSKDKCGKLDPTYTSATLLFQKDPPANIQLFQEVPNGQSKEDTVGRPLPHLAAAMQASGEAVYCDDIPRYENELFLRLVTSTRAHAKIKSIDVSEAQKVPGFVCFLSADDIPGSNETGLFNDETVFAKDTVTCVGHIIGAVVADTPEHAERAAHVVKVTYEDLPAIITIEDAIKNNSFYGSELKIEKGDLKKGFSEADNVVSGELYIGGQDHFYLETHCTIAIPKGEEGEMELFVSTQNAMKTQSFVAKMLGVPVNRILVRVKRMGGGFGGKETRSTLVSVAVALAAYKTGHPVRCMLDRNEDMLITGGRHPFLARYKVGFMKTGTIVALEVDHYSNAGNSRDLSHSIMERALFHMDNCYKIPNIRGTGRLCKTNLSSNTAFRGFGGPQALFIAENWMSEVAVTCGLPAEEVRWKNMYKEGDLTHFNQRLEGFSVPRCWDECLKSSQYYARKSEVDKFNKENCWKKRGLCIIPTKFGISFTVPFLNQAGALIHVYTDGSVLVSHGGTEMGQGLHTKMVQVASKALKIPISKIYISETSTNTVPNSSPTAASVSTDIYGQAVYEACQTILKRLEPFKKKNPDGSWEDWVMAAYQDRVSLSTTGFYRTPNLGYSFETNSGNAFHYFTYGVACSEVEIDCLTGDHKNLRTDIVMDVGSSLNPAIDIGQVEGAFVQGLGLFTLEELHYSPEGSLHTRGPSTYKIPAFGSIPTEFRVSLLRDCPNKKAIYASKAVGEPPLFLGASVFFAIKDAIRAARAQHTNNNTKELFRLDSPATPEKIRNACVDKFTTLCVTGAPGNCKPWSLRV
Experimental: Xanthine oxidase activity was assayed through a spectrophotometric method, essentially as previously reported. […] The DMSO concentration carried over by the inhibitor was 1% (v/v), and an identical concentration of DMSO was used in the absence of the inhibitor. The reaction started with the addition of XO and was followed kinetically for up to 30 s. The initial rate of uric acid formation was expressed as ΔE/min. The effect of each inhibitor in the XO assay was evaluated, and the data were treated as previously indicated for the MAO assay, including the extrapolation of the IC50 values.

[4] = molecular target: T1, Human monoamine oxidase A; assay: Kinetic analysis of MAO-A inhibition (KM, Vmax, apparent Ki); type: biochemical; conditions: for Ki: apparent Ki, mean ± SE (n); for Note: type of inhibition approached (MAO-A): for mixed inhibitors; for Inhibition Type (MAO-A): kynuramine 25–150 µM, two fixed inhibitor concentrations
Experimental: as §1
(§2) The kinetic parameters KM and Vmax for MAO and XO substrates were obtained through kinetic measurements of these activities performed at different substrate concentrations, either in the absence or in the presence of two fixed concentrations of the various inhibitors. […] Each assay was realized as reported above, and the values of the initial velocity (vi) of the reaction were evaluated under the various experimental conditions. The data of vi were nonlinearly fitted according to the Michaelis–Menten equation or analyzed by the Lineweaver–Burk equation in order to derive the kinetic parameters in the absence (KM and Vmax) or in the presence (K’M and V’max) of the inhibitor.
(§3) The inhibition power of the various compounds and their inhibition mechanisms were evaluated. […] However, an apparent inhibition constant (K’i) was calculated at each inhibitor concentration using the equations hereafter reported, depending on the type of inhibition tentatively approached from the experimental data:K’i = V’max × [I]/(Vmax − V’max)(1) K’i = KM × [I]/(K’M − KM)(2) K’i = K’M × [I]/(KM − K’M)(3)
(§4) The K’i values obtained at different inhibitor concentrations were then averaged to obtain a unique value of apparent Ki for each compound.

[5] = molecular target: T2, Human monoamine oxidase B; assay: Kinetic analysis of MAO-B inhibition (KM, Vmax, apparent Ki); type: biochemical; conditions: for Inhibition Type (MAO-B): kynuramine 25–150 µM, two fixed inhibitor concentrations; for Ki: apparent Ki, mean ± SE (n); for Note: type of inhibition approached (MAO-B): for mixed inhibitors
Experimental: as §1, §2, §3, §4

[6] = molecular target: T3, bovine milk xanthine oxidase; assay: Kinetic analysis of xanthine oxidase inhibition; type: biochemical
Experimental: Xanthine oxidase activity was assayed through a spectrophotometric method, essentially as previously reported. In particular, the oxidation of xanthine to uric acid catalyzed by XO was monitored with a Cary 100 UV-Vis Spectrophotometer (Agilent Technologies, Milan, Italy) at 25 °C, thanks to the increase in absorbance at 295 nm due to uric acid formation. In steady-state measurements of XO activity, the assay was carried out in a 500-μL final volume reaction mixture containing 100 mM phosphate buffer, pH 7.8 plus 0.1 mM EDTA (buffer B), 75 μM xanthine, and different concentrations of the various inhibitors. The DMSO concentration carried over by the inhibitor was 1% (v/v), and an identical concentration of DMSO was used in the absence of the inhibitor. The reaction started with the addition of XO and was followed kinetically for up to 30 s. The initial rate of uric acid formation was expressed as ΔE/min. The effect of each inhibitor in the XO assay was evaluated, and the data were treated as previously indicated for the MAO assay, including the extrapolation of the IC50 values.
as §2
The inhibition power of the various compounds and their inhibition mechanisms were evaluated. […]

MAO-A = tested on: MAO-A; set-up: method as in PMID 24140951; conditions: control of MAO-A inhibition; cited from earlier work
XO = tested on: XO; set-up: method as in PMID 16450295; conditions: cited from earlier work
[7] = 75 μM xanthine, pH 7.8, 25 °C, mean ± SE (n), extrapolated from semilogarithmic plot
[8] = read-out: Ki, Calculated from KM Increase (MAO-A)
[9] = uncompetitive, read-out: Ki, average value from Vmax or KM decrease (MAO-B)
[10] = read-out: Ki, Calculated from KM Increase (MAO-B)

Structure (SMILES) | IC50 [1] [µM] | IC50 [2] [µM] | IC50 [3, 7] [µM] | Ki [4, 8] [µM] | Note: type of inhibition approached (MAO-A) [4] | Inhibition Type (MAO-A) [4] | Inhibition Type (MAO-B) [5] | Ki [5, 10] [µM] | Note: type of inhibition approached (MAO-B) [5] | also measured
O=C(OCCc1ccc(O)cc1)C1CCN(Cc2ccccc2)CC1 [HT4, 4-hydroxyphenethyl 1-benzylpiperidine-4-carboxylate] | 14.3 ± 2.2 | 106 ± 22 | 605 ± 35 | 6.1 ± 1.6 | approaching competitive | mixed | uncompetitive |  |  | Ki [5, 9]: 128 ± 45 µM
O=C(OCCc1ccc(O)c(O)c1)C1CCN(Cc2ccccc2)CC1 [HT1, 3,4-dihydroxyphenetyl 1-benzylpiperidine-4-carboxylate] | 54.1 ± 6.9 | 125 ± 28 | 454 ± 22 | 39.7 ± 14.3 | approaching competitive | mixed | competitive | 163 ± 28 |  | 
O=C(OCCc1cc(O)c(O)cc1[N+](=O)[O-])C1CCN(Cc2ccccc2)CC1 [HT2, 4,5-dihydroxy-2-nitrophenethyl 1-benzylpiperidine-4-carboxylate] | 322 ± 58 | 184 ± 48 | 109 ± 20 |  |  | noncompetitive | uncompetitive |  |  | Inhibition of XO activity (in words) [3]: clearly evident concentration-dependent inhibition; Ki ([4]; read-out: Ki, Calculated from Vmax Decrease (MAO-A)): 398 ± 56 µM; Ki [5, 9]: 186 ± 98 µM; Note: type of inhibition approached (XO) [6]: approaching competitive; Ki ([6]; apparent Ki, mean ± SE (n), read-out: Ki Calculated from KM Increase (XO)): 63 ± 8 µM; Inhibition Type (XO) ([6]; xanthine 4–30 µM, 75 or 100 µM HT2): mixed-type
COc1cc(CCOC(=O)C2CCN(Cc3ccccc3)CC2)ccc1OC(C)=O [HT3a] | 44.3 ± 14.4 | 174 ± 80 | 282 ± 37 |  |  | uncompetitive | mixed | 190 ± 37 | approaching competitive | Ki ([4]; uncompetitive, read-out: Ki, average value from Vmax or KM decrease (MAO-A)): 80.5 ± 30.4 µM
COc1cc(CCOC(=O)C2CCN(Cc3ccccc3)CC2)ccc1O [HT3, 4-hydroxy-3-methoxyphenethyl 1-benzylpiperidine-4-carboxylate] | 23.4 ± 6.3 | 171 ± 44 | 361 ± 1 | 7.6 ± 3.7 | approaching competitive | mixed | mixed | 115 ± 50 | approaching competitive | 
COc1cc2c(cc1OC)C(=O)C(CC1CCN(Cc3ccccc3)CC1)C2 (stereo not drawn) [Donepezil, donepezil, reference compound] |  |  |  |  | approaching noncompetitive | mixed | mixed |  | approaching competitive | 
C#CCN(C)CCCOc1ccc(Cl)cc1Cl [Clorgyline, clorgyline] |  |  |  |  |  |  |  |  |  | Inhibition Type (MAO-A) (MAO-A): Inactivator [52]
CC(=O)Oc1ccc(CCOC(=O)C2CCN(Cc3ccccc3)CC2)cc1OC(C)=O [HT1a] | 50.8 ± 11 | 85 ± 33 |  | 36.5 ± 13.2 | approaching competitive | mixed | mixed | 37.9 ± 13.1 | approaching competitive | IC50 XO inhibition [3, 7]: no inhibition; Inhibition of XO activity (in words) [3]: almost ineffective; also recorded: essentially no inhibition
CC(=O)Oc1ccc(CCOC(=O)C2CCN(Cc3ccccc3)CC2)cc1 [HT4a] | 57 ± 18.2 | 86 ± 24 | 438 ± 6 | 15.6 ± 4.2 | approaching competitive | mixed | competitive | 20.7 ± 2.8 |  | 
Oc1ncnc2[nH]ncc12 [Allopurinol, allopurinol] |  |  |  |  |  |  |  |  |  | Inhibition Type (XO) (XO): Competitive [53]; Ki (XO): 1.8 µM
